This note sets out measurements from the supplement of paper PMC4649846.

For experiment [1], the system named is MDA-MB-231. To be noted: incubation time: 72 h. The essentials: (§1)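 MDA-MB-231 cells transfected a day earlier with siRNA against BRCA1 or non-targeting control siRNA were added at 4000 cells per well to 384-well plates holding compounds at 5 concentrations. After 72 h at 37 °C and 5% CO2, viability was read by CellTiter-Blue fluorescence. IC50 and drug sensitivity score came from logistic dose–response fits in Dotmatics Studies. The score is curve area relative to the area between 10% threshold and 100% inhibition, normalised by log of top response.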

The test system of experiment [2] is MDA-MB-231. The experiment can be described thus: drug sensitivity score (DSS); higher = more sensitive; extreme values may be limits of the assay. To be noted: incubation time: 72 h. The method in brief: as §1
Where [3] appears, read: siRNA: siControl (non-targeting).

Several values for one entry are separate records, joined by “and”; a condition that tells them apart may be missing. Identical values can stand only once. Bounds are passed on as bounds.

For the molecule `CCC1=C[C@@H]2CN(C1)Cc1c([nH]c3ccccc13)[C@@](C(=O)OC)(c1cc3c(cc1OC)N(C)[C@H]1[C@@](O)(C(=O)OC)[C@H](OC(C)=O)[C@]4(CC)C=CCN5CC[C@]31[C@@H]54)C2` [Vinorelbine], the “IC50 of cell viability” value with MDA-MB-231 [1] (siRNA: siBRCA1) is 31 nM; in the experiment with MDA-MB-231 [1] (setting [3]) it was 23.6 nM. The drug sensitivity score was 23.5 in the experiment on MDA-MB-231 [2] (siRNA: siBRCA1) and 24 in the experiment on MDA-MB-231 [2] (setting [3]).

As to `CNC(=O)c1cc(Oc2ccc(NC(=O)Nc3ccc(Cl)c(C(F)(F)F)c3)cc2)ccn1` [Sorafenib], the “IC50 of cell viability” value in the experiment on MDA-MB-231 [1] (siRNA: siBRCA1) came to 2950 nM; in the experiment with MDA-MB-231 [1] (setting [3]), 3500 nM. Also, the figures for the drug sensitivity score in the experiment on MDA-MB-231 [2] (siRNA: siBRCA1) and in the experiment on MDA-MB-231 [2] (setting [3]) were 5.25 and 4.57, respectively.

Regarding `CC(=O)O[C@@]12CO[C@@H]1C[C@H](O)[C@@]1(C)C(=O)[C@H](O)C3=C(C)[C@@H](OC(=O)[C@H](O)[C@@H](NC(=O)OC(C)(C)C)c4ccccc4)C[C@@](O)([C@@H](OC(=O)c4ccccc4)[C@H]21)C3(C)C` [Docetaxel], the “IC50 of cell viability” value in the experiment with MDA-MB-231 [1] (siRNA: siBRCA1) was 2.71 nM; in the experiment with MDA-MB-231 [1] (setting [3]), 1.57 nM and 1.83 nM. Moreover, the drug sensitivity score is 32.7 and 31.2 in the experiment with MDA-MB-231 [2] (siRNA: siBRCA1); 33.3 and 33.8 in the experiment with MDA-MB-231 [2] (setting [3]).

On to `Nc1ccn([C@@H]2O[C@H](CO)[C@@H](O)[C@@H]2O)c(=O)n1` [Cytarabine], for which the entries for the “IC50 of cell viability” value with MDA-MB-231 [1] (siRNA: siBRCA1) and with MDA-MB-231 [1] (setting [3]) were 591 nM and 294 nM, respectively. The drug sensitivity score with MDA-MB-231 [2] (siRNA: siBRCA1) was determined as 5.84; in the experiment on MDA-MB-231 [2] (setting [3]), 6.18.

Regarding `C[C@H]1C[C@@H]2[C@H]([C@@H](O)C[C@@]3(C)[C@H]2CC[C@]3(O)C(=O)CO)[C@@]2(C)C=CC(=O)C=C12` [Methylprednisolone], the “IC50 of cell viability” value in the experiment on MDA-MB-231 [1] (siRNA: siBRCA1) and in the experiment on MDA-MB-231 [1] (setting [3]) was over 4170 nM in each case. For the same molecule, the drug sensitivity score in the experiment on MDA-MB-231 [2] (siRNA: siBRCA1) and in the experiment with MDA-MB-231 [2] (setting [3]) was 0 throughout.

`CN(C)/N=N/c1[nH]cnc1C(N)=O` [Dacarbazine]: the “IC50 of cell viability” value with MDA-MB-231 [1] (siRNA: siBRCA1) stood at 1330 nM; in the experiment with MDA-MB-231 [1] (setting [3]), 96.4 nM. The drug sensitivity score was 2.68 in the experiment on MDA-MB-231 [2] (siRNA: siBRCA1) and 7.63 with MDA-MB-231 [2] (setting [3]).

As to `CN1CCN(c2ccc3nc(-c4c(N)c5c(F)cccc5[nH]c4=O)[nH]c3c2)CC1` [Dovitinib], the “IC50 of cell viability” value in the experiment with MDA-MB-231 [1] (siRNA: siBRCA1) and in the experiment with MDA-MB-231 [1] (setting [3]) was over 4170 nM in each case. For the same molecule, the drug sensitivity score in the experiment with MDA-MB-231 [2] (siRNA: siBRCA1) and in the experiment on MDA-MB-231 [2] (setting [3]) was 0 in each case.

For the molecule `Cc1ccc(Nc2nccc(N(C)c3ccc4c(C)n(C)nc4c3)n2)cc1S(N)(=O)=O` [Pazopanib], the “IC50 of cell viability” value with MDA-MB-231 [1] (siRNA: siBRCA1) and in the experiment on MDA-MB-231 [1] (setting [3]) was over 4170 nM each time. Moreover, the drug sensitivity score in the experiment on MDA-MB-231 [2] (siRNA: siBRCA1) and in the experiment with MDA-MB-231 [2] (setting [3]) was 0 each time.

Consider `Cn1cncc1[C@@](N)(c1ccc(Cl)cc1)c1ccc2c(c1)c(-c1cccc(Cl)c1)cc(=O)n2C` [Tipifarnib], for which the “IC50 of cell viability” value in the experiment on MDA-MB-231 [1] (siRNA: siBRCA1) worked out at 79.4 nM; with MDA-MB-231 [1] (setting [3]), 30.5 nM. Besides, the drug sensitivity score in the experiment with MDA-MB-231 [2] (siRNA: siBRCA1) was found to be 12.8; in the experiment on MDA-MB-231 [2] (setting [3]), 14.1.

As for `CC(=O)[C@]1(O)Cc2c(O)c3c(c(O)c2[C@@H](O[C@H]2C[C@H](N)[C@H](O)[C@H](C)O2)C1)C(=O)c1ccccc1C3=O` [Idarubicin], the “IC50 of cell viability” value in the experiment on MDA-MB-231 [1] (siRNA: siBRCA1) came out at 91.4 nM; in the experiment on MDA-MB-231 [1] (setting [3]), 115 nM. Further, the drug sensitivity score with MDA-MB-231 [2] (siRNA: siBRCA1) amounted to 22; with MDA-MB-231 [2] (setting [3]), 21.

For `C#Cc1cccc(Nc2ncnc3cc(OC)c(OCCCCCCC(=O)NO)cc23)c1` [CUDC-101], the “IC50 of cell viability” value in the experiment on MDA-MB-231 [1] (siRNA: siBRCA1) stood at 433 nM; in the experiment with MDA-MB-231 [1] (setting [3]) it was 321 nM. Moreover, the drug sensitivity score in the experiment with MDA-MB-231 [2] (siRNA: siBRCA1) is 14.7; with MDA-MB-231 [2] (setting [3]), 16.4.

As for `CC[C@@H]1C(=O)OC[C@@H]1Cc1cncn1C` [Pilocarpine], the “IC50 of cell viability” value in the experiment with MDA-MB-231 [1] (siRNA: siBRCA1) and in the experiment with MDA-MB-231 [1] (setting [3]) was over 4170 nM each time. Further, the drug sensitivity score in the experiment with MDA-MB-231 [2] (siRNA: siBRCA1) and in the experiment with MDA-MB-231 [2] (setting [3]) was 0 each time.

Consider `COc1cc(F)c(F)c(Nc2ccc(I)cc2F)c1NS(=O)(=O)C1(C[C@H](O)CO)CC1` [RDEA119 (Refametinib)], for which the “IC50 of cell viability” value in the experiment with MDA-MB-231 [1] (siRNA: siBRCA1) was found to be 92.2 nM; in the experiment with MDA-MB-231 [1] (setting [3]), 146 nM. The drug sensitivity score in the experiment on MDA-MB-231 [2] (siRNA: siBRCA1) amounted to 14.9; with MDA-MB-231 [2] (setting [3]), 12.3.
